In patent US12167999B2, “Anti-inflammatory and mydriatic intracameral solutions for inhibition of postoperative ocular inflammatory conditions” (Rayner Intraocular Lenses Limited, priority 2014, dated 2024):
Like-named read-outs stand apart in the source and are kept apart here.

Tests used:
[1] = human, in vivo
Description: Patients undergoing cataract extraction and lens replacement (CELR) were eligible. Written informed consent was obtained from 14 subjects, each of whom received topical ophthalmic ketorolac according to the surgeon's usual practice, beginning one day preoperatively. Immediately prior to the initial surgical incision, the surgeon withdrew a 100-μL sample of aqueous humor from the operative eye with a 30-gauge tuberculin syringe. At the conclusion of CELR prior to final re-inflation of the anterior chamber and wound closure, the surgeon withdrew another 100-μL sample from the anterior chamber. The ketorolac concentrations of the intracameral fluid samples were analyzed by an analytical laboratory.

COX-2 [2] = target: T1, COX-2 (Homo sapiens, UniProt P35354); conditions: cited from earlier work
T1 sequence (P35354 18-604): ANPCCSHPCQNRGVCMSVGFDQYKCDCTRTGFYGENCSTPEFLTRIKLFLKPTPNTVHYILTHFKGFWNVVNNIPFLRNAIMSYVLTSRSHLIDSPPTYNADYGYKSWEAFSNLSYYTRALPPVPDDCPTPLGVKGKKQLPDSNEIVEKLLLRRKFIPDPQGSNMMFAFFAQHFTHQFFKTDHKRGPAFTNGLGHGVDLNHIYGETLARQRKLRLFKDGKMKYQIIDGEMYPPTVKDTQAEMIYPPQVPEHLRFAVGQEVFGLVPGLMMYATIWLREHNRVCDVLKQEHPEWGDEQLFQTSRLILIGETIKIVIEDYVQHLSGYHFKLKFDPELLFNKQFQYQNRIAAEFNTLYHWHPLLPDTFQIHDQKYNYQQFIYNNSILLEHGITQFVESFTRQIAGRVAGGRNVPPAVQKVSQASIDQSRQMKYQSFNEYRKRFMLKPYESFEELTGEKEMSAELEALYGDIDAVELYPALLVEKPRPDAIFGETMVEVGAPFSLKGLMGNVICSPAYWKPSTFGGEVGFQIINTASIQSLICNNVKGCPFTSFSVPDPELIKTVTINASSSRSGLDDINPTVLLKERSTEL

[3] = Ocular tissue distribution of ketorolac after intracameral OMS302 during IOL replacement in dogs; format: in vivo, female beagles
Description: This example describes the results of an in vivo study in dogs to determine the concentrations of ketorolac in the retina and other ocular tissues following the intracameral administration of phenylephrine 1% and ketorolac 0.3% injection formulated as described in Table 1 (OMS302) during IOL replacement in dogs.
(§1) IOL replacement by phacoemulsification was performed on 20 female beagles. During the procedure, OMS302 was administered in BSS solution via irrigation and intracameral injection immediately post-procedure. The target dose level of ketorolac was 5.71 mg/eye, and the target dose volume of OMS302 diluted in BSS solution was […] per eye. Four animals per time point were sacrificed at 0, 2, 6, 8, and 10 hours post-procedure. Samples of blood and aqueous humor were collected. Enucleated eyes were frozen and dissected for collection of retina, retinal pigmented epithelium-choroid, cornea, iris-ciliary body, vitreous humor, sclera, and lens capsule. Tissue concentrations of ketorolac were quantitated using a liquid chromatography/mass spectrometry (LCMS) method. Using published IC50 values for cyclooxygenase (COX) inhibition by ketorolac (Waterbury, et. al., Curr Med Res Opin 22(6):1133-40 (2006)), estimates of percent inhibition were derived for each time point.

COX-1 [4] = assay: Estimated percent inhibition of COX-1 from tissue ketorolac concentrations in dogs; format: in vivo, female beagles; conditions: for estimated COX-1 inhibition: retina
Description: as §1

COX-1 [5] = target: COX-1 (Homo sapiens, UniProt P23219); conditions: cited from earlier work
PGE2 production = conditions: ketorolac 0.45% compared to nepafenac 0.1% and bromfenac 0.09; cited from earlier work
COX-2 [6] = assay: Estimated percent inhibition of COX-2 from tissue ketorolac concentrations in dogs; format: in vivo, female beagles; conditions: for estimated COX-2 inhibition: retina
Description: IOL replacement by phacoemulsification was performed on 20 female beagles. During the procedure, OMS302 was administered in BSS solution via irrigation and intracameral injection immediately post-procedure. […] Four animals per time point were sacrificed at 0, 2, 6, 8, and 10 hours post-procedure. Samples of blood and aqueous humor were collected. Enucleated eyes were frozen and dissected for collection of retina, retinal pigmented epithelium-choroid, cornea, iris-ciliary body, vitreous humor, sclera, and lens capsule. Tissue concentrations of ketorolac were quantitated using a liquid chromatography/mass spectrometry (LCMS) method.

[7] = used for the estimate of percent inhibition
[8] = aqueous humor, vitreous humor and RPE-choroid, t=8 hours
[9] = for at least 8 hours following drug administration
[10] = for at least 10 hours following drug administration

Chain of COX-1 (Homo sapiens, UniProt P23219) (P23219 24-599): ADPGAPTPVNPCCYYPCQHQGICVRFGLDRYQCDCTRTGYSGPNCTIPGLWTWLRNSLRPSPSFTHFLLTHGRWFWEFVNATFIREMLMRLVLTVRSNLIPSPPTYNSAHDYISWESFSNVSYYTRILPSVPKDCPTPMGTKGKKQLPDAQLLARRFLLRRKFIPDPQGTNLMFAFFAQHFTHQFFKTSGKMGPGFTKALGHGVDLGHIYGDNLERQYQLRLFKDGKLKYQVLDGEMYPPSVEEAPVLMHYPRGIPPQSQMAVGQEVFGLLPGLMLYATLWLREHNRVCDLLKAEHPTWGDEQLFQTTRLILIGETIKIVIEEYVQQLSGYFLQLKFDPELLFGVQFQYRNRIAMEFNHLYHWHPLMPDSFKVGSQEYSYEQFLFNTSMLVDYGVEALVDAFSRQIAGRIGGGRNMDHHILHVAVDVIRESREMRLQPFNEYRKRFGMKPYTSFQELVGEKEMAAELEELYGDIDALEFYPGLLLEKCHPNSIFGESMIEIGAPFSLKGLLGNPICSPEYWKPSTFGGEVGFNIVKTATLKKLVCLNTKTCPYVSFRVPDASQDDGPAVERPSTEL

Structure (SMILES): O=C(c1ccccc1)c1ccc2n1CCC2C(=O)O (racemic) [ketorolac, (+/−)-5-Benzoyl-2,3-dihydro-1H-pyrrolizine-1-carboxylic acid: 2-amino-2(hydroxymethyl)-1,3-propanediol (1:1)]
- subjects with an undetectable concentration of ketorolac in the aqueous humor at the end of the surgical procedure [1]: 66.7%
- IC50 (COX-2 [2]; published value): 120 nM
- Ki (COX-2 [2]; [7]): 60 nM
- concentration at 0 h ([3]; female, beagle, dog, plasma, 5.71 mg/eye, t=0, read-out: mean plasma level of ketorolac): 4.73 ± 1.46 ng/mL
- concentration at 8 h ([3]; female, beagle, dog, retina, 5.71 mg/eye, eight hours post-procedure, intracameral OMS302 in BSS): 164 ± 39 ng/g
- concentration at 0 h ([3]; female, beagle, dog, retina, 5.71 mg/eye, immediately following the end of IOL replacement (t=0), intracameral OMS302 in BSS, read-out: Ketorolac concentration in the retina): 1400 ± 1000 ng/g
- half-life ([3]; female, beagle, dog, retina, 5.71 mg/eye, ketorolac after intracameral OMS302, read-out: retinal half-life (converted)): ~3.8 h
- mean plasma level of ketorolac ([3]; t≥2 hours): undetectable
- inhibition of COX-1 (COX-1 [4]; [8]): > 90%
- inhibition of COX-1 in ocular tissues (COX-1 [4]; [9]): at least 90%
- inhibition of COX-1 in ocular tissues (COX-1 [4]; [10]): at least 85%
- estimated COX-1 inhibition (COX-1 [4]; t=0): 99.3%
- estimated COX-1 inhibition (COX-1 [4]; t=8 hours): 98.4%
- mean percent inhibition of COX-1 (COX-1 [4]; retinal tissue, t=10 hours, standard deviation 0.36%): 97.74%
- IC50 (COX-1 [5]; published value): 20 nM
- Ki (COX-1 [5]; [7]): 10 nM
- inhibition of PGE2 (PGE2 production): greatest inhibition
- inhibition of COX-2 (COX-2 [6]; [8]): > 90%
- inhibition of COX-2 in ocular tissues (COX-2 [6]; [9]): at least 90%
- inhibition of COX-2 in ocular tissues (COX-2 [6]; [10]): at least 85%
- estimated COX-2 inhibition (COX-2 [6]; t=0): 96.0%
- estimated COX-2 inhibition (COX-2 [6]; t=8 hours): 91.1%
